Test results published in ChEMBL document CHEMBL4334512, “Rationally Designed, Conformationally Constrained Inverse Agonists of RORγt-Identification of a Potent, Selective Series with Biologic-Like in Vivo Efficacy” (J Med Chem, 2019).
pIC50: −log10 of the molar value.

Columns and labels:
[1] = target: T1, Oxysterols receptor LXR-beta (Homo sapiens, UniProt P55055); test: Activity at LXRbeta (unknown origin)
T1 sequence (P55055 whole entry): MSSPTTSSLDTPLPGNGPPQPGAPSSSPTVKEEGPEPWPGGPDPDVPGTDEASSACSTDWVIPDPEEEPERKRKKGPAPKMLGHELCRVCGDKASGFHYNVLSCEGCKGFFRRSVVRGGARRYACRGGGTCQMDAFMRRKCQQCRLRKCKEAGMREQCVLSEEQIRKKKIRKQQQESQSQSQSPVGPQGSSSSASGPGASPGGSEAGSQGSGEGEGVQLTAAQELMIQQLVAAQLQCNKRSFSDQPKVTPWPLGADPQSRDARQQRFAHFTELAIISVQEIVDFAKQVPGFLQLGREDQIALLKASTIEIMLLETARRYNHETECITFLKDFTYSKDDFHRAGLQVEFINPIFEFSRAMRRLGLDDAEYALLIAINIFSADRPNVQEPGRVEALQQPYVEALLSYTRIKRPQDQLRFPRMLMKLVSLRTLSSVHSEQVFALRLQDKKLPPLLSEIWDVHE

[2] = target: T2, Nuclear receptor subfamily 1 group I member 2 (Homo sapiens, UniProt O75469); test: Activity at PXR (unknown origin)
T2 sequence (O75469 whole entry): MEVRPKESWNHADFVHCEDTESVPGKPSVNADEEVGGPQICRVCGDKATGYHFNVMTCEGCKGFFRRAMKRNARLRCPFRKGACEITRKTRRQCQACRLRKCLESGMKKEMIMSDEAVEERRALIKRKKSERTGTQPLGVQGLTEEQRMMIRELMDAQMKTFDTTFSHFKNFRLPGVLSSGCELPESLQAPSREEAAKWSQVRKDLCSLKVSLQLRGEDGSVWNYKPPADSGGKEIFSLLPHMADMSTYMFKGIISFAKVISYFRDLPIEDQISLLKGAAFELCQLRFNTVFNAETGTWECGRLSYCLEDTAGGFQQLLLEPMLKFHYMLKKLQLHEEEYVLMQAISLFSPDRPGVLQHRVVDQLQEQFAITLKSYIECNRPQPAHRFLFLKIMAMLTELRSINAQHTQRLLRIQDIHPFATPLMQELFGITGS

[3] = target: T3, Oxysterols receptor LXR-alpha (Homo sapiens, UniProt Q13133); test: Activity at LXRalpha (unknown origin)
T3 sequence (Q13133 whole entry): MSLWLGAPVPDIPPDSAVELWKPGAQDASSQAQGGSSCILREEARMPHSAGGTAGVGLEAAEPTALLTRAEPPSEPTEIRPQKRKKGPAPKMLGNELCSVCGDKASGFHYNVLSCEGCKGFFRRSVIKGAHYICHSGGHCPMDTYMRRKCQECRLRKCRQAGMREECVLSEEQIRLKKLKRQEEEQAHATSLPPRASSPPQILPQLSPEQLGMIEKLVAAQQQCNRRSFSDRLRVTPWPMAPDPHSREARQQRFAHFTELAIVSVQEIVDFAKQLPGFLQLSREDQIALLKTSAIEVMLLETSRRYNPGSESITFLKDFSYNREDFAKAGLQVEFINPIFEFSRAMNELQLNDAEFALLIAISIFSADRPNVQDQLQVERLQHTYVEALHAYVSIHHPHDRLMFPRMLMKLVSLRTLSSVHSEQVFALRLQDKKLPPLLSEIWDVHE

[4] = Unbound fraction in human serum; format: ADME, cell-free
[5] = Half life in mouse liver microsomes; format: ADME, Microsome
[6] = target: T4, Nuclear receptor ROR-beta (Homo sapiens, UniProt Q92753); test: Activity at RORbeta (unknown origin)
T4 sequence (Q92753 whole entry): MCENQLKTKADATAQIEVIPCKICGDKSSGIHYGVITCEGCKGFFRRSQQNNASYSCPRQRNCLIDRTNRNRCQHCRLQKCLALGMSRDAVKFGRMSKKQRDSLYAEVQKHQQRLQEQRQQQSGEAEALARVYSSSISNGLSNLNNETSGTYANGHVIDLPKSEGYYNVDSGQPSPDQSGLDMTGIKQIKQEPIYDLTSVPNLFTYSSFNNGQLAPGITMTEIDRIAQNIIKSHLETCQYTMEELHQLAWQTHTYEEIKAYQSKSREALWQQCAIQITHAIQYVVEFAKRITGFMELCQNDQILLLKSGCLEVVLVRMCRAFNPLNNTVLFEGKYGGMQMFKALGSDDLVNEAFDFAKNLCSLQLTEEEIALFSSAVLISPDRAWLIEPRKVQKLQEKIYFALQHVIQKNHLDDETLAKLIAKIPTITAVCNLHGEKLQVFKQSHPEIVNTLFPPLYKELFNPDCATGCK

[7] = Half life in human liver microsomes; format: ADME, Microsome
[8] = target: T5, Nuclear receptor ROR-alpha (Homo sapiens, UniProt P35398); test: Activity at RORalpha (unknown origin)
T5 sequence (P35398 whole entry): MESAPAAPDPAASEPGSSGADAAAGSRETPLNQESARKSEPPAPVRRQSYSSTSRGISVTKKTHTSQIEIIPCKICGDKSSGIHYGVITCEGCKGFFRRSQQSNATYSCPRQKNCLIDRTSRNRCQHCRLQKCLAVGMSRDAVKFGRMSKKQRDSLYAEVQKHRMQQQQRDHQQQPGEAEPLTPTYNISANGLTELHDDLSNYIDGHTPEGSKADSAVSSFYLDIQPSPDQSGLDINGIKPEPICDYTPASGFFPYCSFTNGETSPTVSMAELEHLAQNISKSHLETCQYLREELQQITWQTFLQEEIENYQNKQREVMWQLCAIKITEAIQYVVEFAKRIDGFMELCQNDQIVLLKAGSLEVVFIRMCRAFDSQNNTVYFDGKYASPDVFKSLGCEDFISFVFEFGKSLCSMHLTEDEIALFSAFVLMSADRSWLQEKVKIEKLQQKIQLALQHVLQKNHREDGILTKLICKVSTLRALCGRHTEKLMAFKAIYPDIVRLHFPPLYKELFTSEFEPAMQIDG

[9] = Half life in rat liver microsomes; format: ADME, Microsome
[10] = Drug level in Balb/c mouse at 10 mg/kg, po after 24 hrs; format: ADME, organism-based; conditions: in vivo, read-out: Drug uptake
[11] = Cmax in Balb/c mouse at 10 mg/kg, po; format: ADME, organism-based; design: dose 10 mg/kg, route oral; conditions: in vivo

| SMILES | pIC50 [1] | pIC50 [2] | pIC50 [3] | fraction unbound [4] | half-life [5] [h] | pIC50 [6] | half-life [7] [h] | pIC50 [8] | half-life [9] [h] | concentration at 24 h [10] [µM] | Cmax [11] [µM] |
| --- | --- | --- | --- | --- | --- | --- | --- | --- | --- | --- | --- |
| O=C(O)[C@H]1CC[C@H](C(=O)N2CC[C@@]3(S(=O)(=O)Cc4ccccc4)c4ccc(C(F)(C(F)(F)F)C(F)(F)F)cc4CC[C@@H]23)CC1 | < 5.00 | < 4.40 | < 5.00 |  |  | < 5.00 |  | < 5.00 |  |  |  |
| O=C(C1CCS(=O)(=O)CC1)N1CC[C@@]2(S(=O)(=O)c3ccc(F)cc3)c3ccc(C(F)(C(F)(F)F)C(F)(F)F)cc3CC[C@@H]12 | < 5.00 | < 4.40 | < 5.00 |  | > 2 | < 5.00 | > 2 | < 5.00 | 1.1 |  |  |
| O=C(O)C12CCC(C(=O)N3CC[C@@]4(S(=O)(=O)c5ccc(F)cc5)c5ccc(C(F)(C(F)(F)F)C(F)(F)F)cc5CC[C@@H]34)(CC1)CC2 | < 5.00 | < 4.40 | < 5.00 |  | > 2 | < 5.00 | > 2 | < 5.00 | > 2 | 1 | 9.3 |
| O=C(N1CC[C@@]2(S(=O)(=O)c3ccc(F)cc3)c3ccc(C(F)(C(F)(F)F)C(F)(F)F)cc3OC[C@@H]12)C1(O)CCS(=O)(=O)CC1 | < 5.00 | < 4.40 | < 5.00 |  | > 2 | < 5.00 | > 2 | < 5.00 | 1.58 |  |  |
| C[C@]1(C(=O)N2CC[C@@]3(S(=O)(=O)c4ccc(F)cc4)c4ccc(C(F)(C(F)(F)F)C(F)(F)F)cc4CC[C@@H]23)CC[C@H](C(=O)O)CC1 | < 5.00 | < 4.40 | < 5.00 |  | 1.4 | < 5.00 | 1.82 | < 5.00 | 1.78 |  |  |
| O=C(O)C12CC(C(=O)N3CC[C@@]4(S(=O)(=O)c5ccc(F)cc5)c5ccc(C(F)(C(F)(F)F)C(F)(F)F)cc5CC[C@@H]34)(C1)C2 | < 5.00 | < 4.40 | < 5.00 |  |  | < 5.00 |  | < 5.00 |  |  |  |
| O=C(O)[C@H]1CC[C@H](C(=O)N2CC[C@@]3(S(=O)(=O)c4cccc(Cl)c4)c4ccc(C(F)(C(F)(F)F)C(F)(F)F)cc4CC[C@@H]23)CC1 | < 5.00 | < 4.40 | < 5.00 |  | > 2 | < 5.00 | > 2 | < 5.00 | > 2 |  |  |
| Cc1cccc(S(=O)(=O)[C@@]23CCN(C(=O)[C@H]4CC[C@H](C(=O)O)CC4)[C@@H]2CCc2cc(C(F)(C(F)(F)F)C(F)(F)F)ccc23)c1 | < 5.00 | < 4.40 | < 5.00 |  | > 2 | < 5.00 | > 2 | < 5.00 | 0.417 |  |  |
| O=C(N1CC[C@@]2(S(=O)(=O)c3ccc(F)cc3)c3ccc(C(F)(C(F)(F)F)C(F)(F)F)cc3NC[C@@H]12)C1(O)CCS(=O)(=O)CC1 | < 5.00 | < 4.40 | < 5.00 | 0.006 |  | < 5.00 |  | < 5.00 |  |  |  |

More lines, now with the values ahead:

| pIC50 [1] | pIC50 [2] | pIC50 [3] | fraction unbound [4] | half-life [5] [h] | pIC50 [6] | half-life [7] [h] | pIC50 [8] | half-life [9] [h] | concentration at 24 h [10] [µM] | Cmax [11] [µM] | SMILES |
| --- | --- | --- | --- | --- | --- | --- | --- | --- | --- | --- | --- |
| < 5.00 | < 4.40 | < 5.00 | 0.003 | > 2 | < 5.00 | > 2 | < 5.00 | > 2 |  |  | O=C(O)[C@H]1CC[C@H](C(=O)N2CC[C@@]3(S(=O)(=O)c4ccc(F)cc4)c4ccc(C(F)(C(F)(F)F)C(F)(F)F)cc4OC[C@@H]23)CC1 |
| < 5.00 | < 4.40 | < 5.00 | 0.002 | > 2 | < 5.00 | 1.53 | < 5.00 | 1.77 |  |  | CCCN1C[C@H]2N(C(=O)[C@H]3CC[C@H](C(=O)O)CC3)CC[C@@]2(S(=O)(=O)c2ccc(F)cc2)c2ccc(C(F)(C(F)(F)F)C(F)(F)F)cc21 |
| < 5.00 | < 4.40 | < 5.00 |  | > 2 | < 5.00 | > 2 | < 5.00 | 1.73 |  |  | C[C@]1(C(=O)O)CC[C@H](C(=O)N2CC[C@@]3(S(=O)(=O)c4ccc(F)cc4)c4ccc(C(F)(C(F)(F)F)C(F)(F)F)cc4CC[C@@H]23)CC1 |
| < 5.00 | < 4.40 | < 5.00 |  | > 2 | < 5.00 | > 2 | < 5.00 | > 2 |  |  | O=C(O)[C@H]1CC[C@H](C(=O)N2CC[C@@]3(S(=O)(=O)c4ccc(Cl)cc4)c4ccc(C(F)(C(F)(F)F)C(F)(F)F)cc4CC[C@@H]23)CC1 |
| < 5.00 | < 4.40 | < 5.00 |  |  | < 5.00 |  | < 5.00 |  |  |  | O=C(O)[C@H]1CC[C@@H](C(=O)N2CC[C@@]3(S(=O)(=O)c4ccc(F)cc4)c4ccc(C(F)(C(F)(F)F)C(F)(F)F)cc4CC[C@@H]23)CC1 |
| < 5.00 | < 4.40 | < 5.00 |  | 0.85 | < 5.00 | 0.35 | < 5.00 | 0.817 |  |  | CC(=O)N1CCC(C(=O)N2CC[C@@]3(S(=O)(=O)c4ccc(F)cc4)c4ccc(C(F)(C(F)(F)F)C(F)(F)F)cc4CC[C@@H]23)CC1 |
| < 5.00 | < 4.40 | < 5.00 | 0.014 | > 2 | < 5.00 | > 2 | < 5.00 | > 2 |  |  | O=C(O)[C@H]1CC[C@H](C(=O)N2CC[C@@]3(S(=O)(=O)c4ccc(F)cc4)c4ccc(C(F)(C(F)(F)F)C(F)(F)F)cc4NC[C@@H]23)CC1 |
| < 5.00 | < 4.40 | < 5.00 |  | > 2 | < 5.00 | 1.37 | < 5.00 | 1.02 |  |  | Cc1ccc(S(=O)(=O)[C@@]23CCN(C(=O)[C@H]4CC[C@H](C(=O)O)CC4)[C@@H]2CCc2cc(C(F)(C(F)(F)F)C(F)(F)F)ccc23)cc1 |
| < 5.00 | < 4.40 | < 5.00 |  | 1.65 | < 5.00 | 1.83 | < 5.00 | > 2 |  |  | O=C(O)[C@H]1CC[C@H](C(=O)N2CC[C@@]3(S(=O)(=O)c4cccc(F)c4)c4ccc(C(F)(C(F)(F)F)C(F)(F)F)cc4CC[C@@H]23)CC1 |
